Laboratory results from PMC7397269, “Synthesis and Evaluation of New Coumarin Derivatives as Antioxidant, Antimicrobial, and Anti-Inflammatory Agents” (Molecules, 2020).
Converted amounts (≈) assume the structure as drawn. Where two headings read alike, the source gives them in different places.

Legend:
[1] = DPPH antioxidant assay (radical scavenging); type: biochemical; settings: mean ± SD (n = 3)
Description: The antioxidant effects of the synthesised compounds were assessed using the 2,2-diphenyl-1-picrylhydrazyl (DPPH) antioxidant assay. Table 1 summarises the antioxidant effects of the test samples and ascorbic acid except for compound 5b because it was produced in poor yield.
The radical scavenging activity of the synthesised compounds was measured using the DPPH microplate-based method. The absorbance was measured using a microplate/cuvette reader (Spectramax M5, Molecular Devices, San Jose, CA, USA). Reference standard ascorbic acid was utilised as the positive control for this assay. Test samples were prepared at a starting concentration of 200 μg/mL after mixing with 100 μL of 0.2 mM DPPH methanolic solution. […] Samples were incubated with DPPH in the dark for 30 min at room temperature (25 °C). The methanolic DPPH solution was prepared daily and stored in a flask covered with aluminium foil. DPPH radicals have an absorption maximum (λmax) at 515 nm, at which the absorbance values were measured and converted into a percentage of antioxidant activity.
The methanolic DPPH solution without antioxidants was used as a control, and samples in methanol alone served as a background control. IC50 was determined using GraphPad Prism 7 (GraphPad Software Inc., San Diego, CA, USA). The percent inhibition was calculated using the following Equation (1):(1) % Inhibition=100−Sample Absorbance −Sample background Absorbance/DPPH only Absorbance×100
The assay was carried out in triplicate and performed as much as possible in an area protected against light. The data points are presented as the mean ± standard deviation (SD, n = 3).

[2] = test system: Staphylococcus aureus ATCC 29213; experiment: Agar well diffusion, S. aureus; type: cell-based; settings: ATCC29213, 100 μL of 10 mg/mL in DMSO, read-out: diameter of inhibition zone, SA
Excerpt: (§1) The new molecules were individually tested for their antimicrobial activity in vitro against standard bacteria strains from the American Type Culture Collection (ATCC), namely, Staphylococcus aureus ATCC 29213, Bacillus subtilis ATCC 6633, Bacillus megaterium ATCC 9885 (Gram-positive), Escherichia coli ATCC 2592, and Pseudomonas aeruginosa ATCC 27,953 (Gram-negative). The compounds were also microbiologically tested against locally isolated Saccharomyces cerevisiae (yeast) and the standard Agricultural Research Service Culture Collection (NRRL) strain of the yeast-like pathogenic fungus Candida albicans NRRL Y-477. Primary screening was conducted using the agar well diffusion method using nutrient agar (NA) medium and Sabourand dextrose agar (SDA) medium for the tested pathological bacteria and yeast, respectively. […].
(§2) Antimicrobial tests were conducted via the agar well diffusion method using 100 μL of suspension containing 1 × 10^8 CFU/mL pathological tested bacteria and 1 × 10^6 CFU/mL yeast spread on NA and SDA, respectively. After the media cooled and solidified, wells (10 mm in diameter) were made in the solidified agar and loaded with 100 μL of the tested compound solution prepared by dissolving 10 mg of the chemical compound in 1 mL dimethyl sulfoxide (DMSO). The inoculated plates were then incubated for 24 h at 37 °C for bacteria and yeast growth. DMSO served as negative control. Ciprofloxacin (10 mg/mL) and ketoconazole (10 mg/mL) were used as standards for antibacterial and antifungal activity, respectively. After incubation, antimicrobial activity was evaluated by measuring the zone of inhibition against the test organisms and compared with that of the standard. Antimicrobial activities were expressed as the diameter of the inhibition zone (IZ) in mm. The experiment was carried out in triplicate and the average zone of inhibition was calculated.

[3] = test system: Bacillus subtilis ATCC 6633; experiment: Agar well diffusion, B. subtilis; type: cell-based; settings: ATCC6633, 100 μL of 10 mg/mL in DMSO, read-out: diameter of inhibition zone, BS
Excerpt: as §1, §2

[4] = test system: Bacillus megaterium ATCC 9885; experiment: Agar well diffusion, B. megaterium; type: cell-based; settings: Priestia megaterium, ATCC9885, 100 μL of 10 mg/mL in DMSO, read-out: diameter of inhibition zone, BM
Excerpt: as §1, §2

[5] = test system: Escherichia coli ATCC 2592; experiment: Agar well diffusion, E. coli; type: cell-based; settings: ATCC2592, 100 μL of 10 mg/mL in DMSO, read-out: diameter of inhibition zone, EC
Excerpt: as §1, §2

[6] = test system: Pseudomonas aeruginosa ATCC 27,953; experiment: Agar well diffusion, P. aeruginosa; type: cell-based; settings: ATCC27, 100 μL of 10 mg/mL in DMSO, read-out: diameter of inhibition zone, PA
Excerpt: as §1, §2

[7] = test system: Saccharomyces cerevisiae local isolate; experiment: Agar well diffusion, S. cerevisiae; type: cell-based; settings: read-out: diameter of inhibition zone, SC
Excerpt: as §1, §2

[8] = test system: Candida albicans NRRL Y-477; experiment: Agar well diffusion, C. albicans; type: cell-based; settings: NRRLY477, 100 μL of 10 mg/mL in DMSO, read-out: diameter of inhibition zone, CA
Excerpt: as §1, §2

[9] = test system: Saccharomyces cerevisiae local isolate; experiment: MIC, two-fold serial dilution, S. cerevisiae; type: cell-based; settings: read-out: Minimum inhibitory concentration, SC
Excerpt: as §1
(§3) The bacteriostatic activity of the active compounds (having IZ > 16 mm) was then evaluated using the two-fold serial dilution technique. Two-fold serial dilutions of the tested compounds solutions were prepared using the proper nutrient broth to reach final concentrations of 1000, 500, 250, and 125 μg/mL. The tubes were then inoculated with the test microorganisms grown in their suitable broth at 37 °C for 24 h (1 × 10^8 CFU/mL for bacteria and 1 × 10^6 CFU/mL of yeast), 0.1 mL of the above inoculum was administered per 5 mL, and the tubes were incubated at 37 °C for 24 h. The lowest concentration showing no growth was taken as the MIC.

[10] = test system: Candida albicans NRRL Y-477; experiment: MIC, two-fold serial dilution, C. albicans; type: cell-based; settings: NRRLY477, read-out: Minimum inhibitory concentration, CA
Excerpt: as §1, §3

trypsin = experiment: Proteinase-inhibitory activity; type: biochemical; settings: 250 µg/mL; mean ± SD (n = 3)
Description: The newly synthesised compounds were individually tested for their in vitro anti-inflammatory activity against proteinase enzyme. […] This test was performed at the Pharmacology Department, Medical Research Division, National Research Centre, Cairo, Egypt. Furthermore, compounds 2–8 were evaluated for their COX1/COX2 inhibitory activities.
The test was performed according to El-Serwy et al. with minor modifications. The reaction mixture (2 mL) contained 0.06 mg trypsin, 20 mM Tris HCl buffer (pH 7.4), and 1 mL test sample (250 µg/mL for each compound). After incubating for 5 min, 1 mL of 0.8% (w/v) casein was added. The mixture was incubated for an additional 20 min. The reaction was arrested by adding 1 mL of 10% perchloric acid. The cloudy suspension was centrifuged, and the absorbance of the supernatant was read at 280 nm. Reference standard aspirin was used as the positive control. The experiment was performed in triplicate. The percent inhibition of protein denaturation was calculated using the following Equation (2):(2) % Inhibition=100−A control −A test/A control×100 where Acontrol and Atest represent the absorbance of the control reaction without and with the sample, respectively.

COX-1 = biological target: T1, COX-1 (Homo sapiens, UniProt P23219); experiment: COX-1 inhibition, Cayman assay kit; type: biochemical; settings: mean of two determinations
T1 construct: purchased Cayman Chemical 701070
T1 sequence (P23219 24-599): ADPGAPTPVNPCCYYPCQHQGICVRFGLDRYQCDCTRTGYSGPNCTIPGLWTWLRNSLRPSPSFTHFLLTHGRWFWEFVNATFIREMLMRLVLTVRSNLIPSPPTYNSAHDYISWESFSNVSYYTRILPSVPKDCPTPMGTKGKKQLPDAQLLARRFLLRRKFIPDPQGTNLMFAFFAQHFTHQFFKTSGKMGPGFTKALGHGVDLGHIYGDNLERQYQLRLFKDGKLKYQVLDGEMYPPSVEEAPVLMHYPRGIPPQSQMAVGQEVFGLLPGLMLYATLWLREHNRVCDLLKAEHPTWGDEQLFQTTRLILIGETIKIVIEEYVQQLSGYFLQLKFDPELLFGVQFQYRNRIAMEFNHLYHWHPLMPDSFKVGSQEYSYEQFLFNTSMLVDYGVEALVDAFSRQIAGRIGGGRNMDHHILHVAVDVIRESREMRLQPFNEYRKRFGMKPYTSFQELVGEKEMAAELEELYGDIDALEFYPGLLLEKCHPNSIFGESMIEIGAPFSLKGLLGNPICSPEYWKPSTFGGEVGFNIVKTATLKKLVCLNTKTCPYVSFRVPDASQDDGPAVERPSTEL

COX-2 = biological target: T2, COX-2 (Homo sapiens, UniProt P35354); experiment: COX-2 inhibition, Cayman assay kit; type: biochemical; settings: for IC50: mean of two determinations; for SI, selectivity index (COX-1/COX-2): ratio of COX-1/COX-2 IC50
T2 construct: purchased Cayman Chemical 701080
T2 sequence (P35354 18-604): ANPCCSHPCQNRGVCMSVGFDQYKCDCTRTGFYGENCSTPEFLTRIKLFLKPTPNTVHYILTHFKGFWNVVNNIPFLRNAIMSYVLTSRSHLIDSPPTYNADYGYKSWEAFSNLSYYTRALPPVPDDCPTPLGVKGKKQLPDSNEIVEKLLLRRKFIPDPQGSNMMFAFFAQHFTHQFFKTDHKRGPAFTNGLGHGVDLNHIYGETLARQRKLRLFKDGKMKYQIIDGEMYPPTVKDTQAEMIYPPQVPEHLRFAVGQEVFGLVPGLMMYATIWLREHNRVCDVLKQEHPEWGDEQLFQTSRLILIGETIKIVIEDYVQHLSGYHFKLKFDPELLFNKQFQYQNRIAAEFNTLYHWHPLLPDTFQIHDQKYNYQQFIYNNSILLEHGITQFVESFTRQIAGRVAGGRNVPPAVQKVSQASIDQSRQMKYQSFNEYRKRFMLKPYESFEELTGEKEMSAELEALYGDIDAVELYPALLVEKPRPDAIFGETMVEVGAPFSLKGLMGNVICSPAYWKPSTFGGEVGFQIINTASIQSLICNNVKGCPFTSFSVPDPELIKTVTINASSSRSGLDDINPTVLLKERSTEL

[11] = test system: Staphylococcus aureus ATCC 29213; experiment: MIC, two-fold serial dilution, S. aureus; type: cell-based; settings: ATCC29213, read-out: Minimum inhibitory concentration, SA
Excerpt: as §1, §3

SMILES | IC50 [1] | zone of inhibition at 10000 µg/mL [2] | zone of inhibition at 10000 µg/mL [3] | zone of inhibition at 10000 µg/mL [4] | zone of inhibition at 10000 µg/mL [5] | zone of inhibition at 10000 µg/mL [6] | zone of inhibition at 10000 µg/mL [7] | zone of inhibition at 10000 µg/mL [8] | MIC [9] | MIC [10] | % Inhibition (proteinase) (trypsin) | IC50 (COX-1) | IC50 (COX-2) | SI, selectivity index (COX-1/COX-2) (COX-2) | melting point | MIC [11] | zone of inhibition at 10000 µg/mL ([7]; well diffusion, 100 μL of 10 mg/mL in DMSO, S. cerevisiae) | MIC ([9]; two-fold serial dilution, S. cerevisiae)
Cc1ccc2oc(=O)c3c(c2c1)OC(/N=C/c1ccc(Cl)cc1Cl)=C(C#N)C3c1ccc([N+](=O)[O-])cc1 (racemic) [5e, (±)-2-((2,4-dichlorobenzylidene)amino)-9-methyl-4-(4-nitrophenyl)-5-oxo-4H,5H-pyrano[3,2-c]chromene-3-carbonitrile] | — ((—): inactive (IC50 > 200 μg/mL)) | 16 mm | 16 mm | 16 mm | 15 mm | 15 mm | 22 mm | 20 mm | 500 µg/mL (≈ 939 µM) | 500 µg/mL (≈ 939 µM) | 45.78 ± 1.62% | 20.8 µM | 8.27 µM | 2.52 | 236 to 238 °C |  |  | 
COc1cc(/C=N/C2=C(C#N)C(c3ccco3)c3c(c4cc(C)ccc4oc3=O)O2)cc(OC)c1OC (racemic) [5d, (±)-4-(furan-2-yl)-9-methyl-5-oxo-2-((3,4,5-trimethoxybenzylidene)amino)-4H,5H-pyrano[3,2-c]chromene-3-carbonitrile] | 82.92 ± 3.300 µg/mL (≈ 166 µM) | 18 mm | < 15 mm | < 15 mm | < 15 mm | < 15 mm | 19 mm | 19 mm | 1000 µg/mL (≈ 2010 µM) | 1000 µg/mL (≈ 2010 µM) | 43.4 ± 1.52% | 27.2 µM | 16 µM | 1.7 | 248 to 250 °C | 1000 µg/mL (≈ 2010 µM) |  | 
Cc1ccc2oc(=O)c3c(c2c1)OC(N)=C(C(N)=O)C3c1ccco1 (racemic) [3b, (±)-2-Amino-4-(furan-2-yl)-9-methyl-5-oxo-4H,5H-pyrano[3,2-c]chromene-3-carboxamide] | 48.38 ± 4.616 µg/mL (≈ 143 µM) | 16 mm | < 15 mm | < 15 mm | 16 mm | 16 mm | 17 mm | 18 mm | 1000 µg/mL (≈ 2960 µM) | 1000 µg/mL (≈ 2960 µM) | 49.28 ± 10.93% | 7.73 µM | 2.45 µM | 3.16 | 202 to 204 °C |  |  | 
CC(=O)N1CCN(c2ccc(OCC3COC(Cn4ccnc4)(c4ccc(Cl)cc4Cl)O3)cc2)CC1 (stereo not shown) [Ketoconazole, reference compound] |  | < 15 mm | < 15 mm | < 15 mm | < 15 mm | < 15 mm |  | 28 mm |  | 125 µg/mL (≈ 235 µM) |  |  |  |  |  |  | 30 mm | 125 µg/mL (≈ 235 µM)
